Measurements published in patent US6592834B1, “Calcium hydroxide, a process for the production thereof and use thereof” (Kabushiki Kaisha Kaisui Kagaku Kenkyujo, priority 1999, dated 2003).

Assay: Thermal stability test of polyvinyl chloride sheet in Geer oven at 185° C. (Example 7 composition)
Experimental: A heat stabilizer (acid-capturing agent) shown in Table 3 was mixed with the above components other than the heat stabilizer in the above amounts, and the mixture was uniformly mixed. Then, it was kneaded with an open roll for 3 minutes at 180° C., to prepare a sheet having a thickness of about 1 mm. The sheet was placed in a Geer oven set at 185° C., and it was estimated for a thermal stability. […] Concerning properties required for the heat stabilizer, the heat stabilizer was required to be nonpoisonous and a low price, to have good dispersibility, to be almost free from coloration, and to give a long period of time before blackening.
In Example 7, the calcium hydroxide of the present invention as a heat stabilizer was replaced with a calcium hydroxide obtained by surface-treating a commercially available calcium hydroxide used in Comparative Example 1 (5-1), lead stearate (5-2), and A type zeolite (5-3). These cases were estimated.

For A type zeolite [5-3], the “Thermal stability (period of time taken until the sheet was blackened)” value was 40 min.
